Laboratory results taken from patent US10138235B2, “Pyrazolopyridine derivatives, preparation process therefor and therapeutic use thereof” (SANOFI, priority 2011, dated 2018).

Key:
[1] = tested on: HUVEC cells stimulated with FGF-2; experiment: In vitro angiogenesis of HUVEC cells induced with FGF-2 (length of pseudotubules); format: cell-based, human; settings: concentration at which active on FGF-2-induced angiogenesis of HUVEC cells, evaluated from 0.03 nM to 300 nM; for minimal effective concentration: Homo sapiens, 24 h
Description: To do this, matrices composed of matrigel (growth factor reduced matrigel, Becton Dickinson 356230) and of collagen (rat tail collagen type I, Becton Dickinson 354236) are deposited in an amount of 160 μl into each chamberslide well (Biocoat Cellware collagen, Type I, 8-well culturesides: Becton dickinson 354630), or 60 μl per well of 96-plate wells (Biocoat collagenl cellware, Becton Dickinson 354407). The matrix is prepared by mixing ⅓ of matrigel, 1 mg/ml final of collagen, 0.1N NaOH (0.026× the volume of collagen in μl), PBS 1×, and the volume is then adjusted with water. The gels are kept for 1 hour at 37° C. to allow their polymerization. Next, the human venous endothelial cells (HUVEC ref.: C-12200—Promocell) were seeded at 15×10^3 or 6×10^3 cells/well in 400 or 120 μl (for the 8-well or 96-well plates, respectively) of EBM medium (Clonetics C3121)+2% FBS+hEGF 10 μg/ml. They are stimulated with 1 or 3 ng/ml of FGF-2 (R&D system, 133-FB-025; Invitrogen, PHG0026) for 24 hours at 37° C. in the presence of 5% CO2. After 24 hours, the length of the network of microtubules formed is measured by means of the computer-assisted image analysis system (Imagenia Biocom, Courtaboeuf, France) and the total length of the pseudotubules in each well is determined. The mean total length of the microcapillary network is calculated in μm for each condition corresponding to the mean on 6 replicates
Stimulation with FGF-2 allows induction of the formation of new tubules. An FGF-R antagonist is considered as being active in this test if it is capable of partially inhibiting this angiogenesis at a dose of less than or equal to 300 nM.
In this experiment, the molecules are evaluated from 0.03 nM to 300 nM depending on the molecule with regard to induction of the angiogenesis of human HUVEC cells with FGF-2. Compounds 38 (Example 2), 46 (Example 1), 53 (Example 3), 56 (Example 4), 57 (Example 6), 61 (Example 5), 75 (Example 12), 83 (Example 13), 88 (Example 8), 91 (Example 15), 93 (Example 14), 106 (Example 11), 108 (Example 7) and 114 (Example 9) are active since they have inhibitory activity on the formation of pseudotubules of greater than or equal to 20% at a dose of less than or equal to 300 nM (FIG. 1). In the following table, A=active for a concentration<1 nM, B=active at a concentration of 1 nM, C=active at a concentration of 3 nM, D=active at a concentration of 10 nM, E=active at a concentration of 30 nM, and F=active at a concentration of 300 nM.

[2] = tested on: inflammatory angiogenesis in mice; experiment: Model of inflammatory angiogenesis in mice (air pocket granuloma); format: in vivo; settings: 30 mg/kg, after one week of treatment
Description: The model described by Colville-N H et al. in 1995 makes it possible to study pharmacological agents that are capable of modulating the appearance of angiogenesis in an inflammatory context. The model is developed on female OF1 mice (Charles River laboratories) weighing about 25 g, and per group of 12. The animals are anaesthetized intraperitoneally with pentobarbital sodium (60 mg/kg; Sanofi Nutrition Santé Animale). An air pocket is created on the mouse's back by injecting 3 ml of air subcutaneously. After waking up, the animals receive a treatment in general by gavage and receive an injection of 0.5 ml of Freud's adjuvant (Sigma) with 0.1% croton oil (Sigma) into the pocket. Seven days later, the mice are again anaesthetized and placed on a hotplate at 40° C. 1 ml of carmine red (Aldrich Chemicals, 5% in 10% of gelatin) is injected into the caudal vein. The animals are then placed at 4° C. for 2-3 hours. The skins are then removed and dried for 24 hours in an oven at 56° C. […] The filtrates are read in a spectrophotometer at 492 nm against a calibration range of carmine red. […] The results are expressed as mean values (±sem). […]
The FGF-R antagonists are evaluated between 1 and 50 mg/kg using methylcellulose/Tween (0.6% v/v) as vehicle or any other vehicle that enables dissolution of the active principle. […]

N#Cc1cc(-c2cc(C(F)F)c3cn[nH]c3n2)ccc1N [Compound 75, 2-Amino-5-[4-(difluoromethyl)-1H-pyrazolo[3,4-b]pyridin-6-yl]benzonitrile]
minimal effective concentration [1]: 0.01 µM | melting point: 263 °C

Cn1cc2c(C(F)F)cc(-c3ccc(N)c(C#N)c3)nc2n1 [Compound 106, 2-Amino-5-[4-(difluoromethyl)-2-methyl-2H-pyrazolo[3,4-b]pyridin-6-yl]benzonitrile]
minimal effective concentration [1]: < 0.001 µM

O=C(O)c1cc(-c2cc(C(F)F)c3c(-c4ccccc4)n[nH]c3n2)ccc1F [Compound 53, 5-[4-(Difluoromethyl)-3-phenyl-1H-pyrazolo[3,4-b]pyridin-6-yl)-2-fluorobenzoic acid]
minimal effective concentration [1]: < 0.001 µM

Cn1nc2nc(-c3ccc(N)c(C#N)c3)cc(C(F)(F)F)c2c1-c1ccccc1 [Compound 108, 2-Amino-5-[2-methyl-3-phenyl-4-(trifluoromethyl)-2H-pyrazolo[3,4-b]pyridin-6-yl]benzonitrile]
minimal effective concentration [1]: 0.003 µM | melting point: 295 °C

COc1cc(-c2cc(C(=O)O)c3cn[nH]c3n2)ccc1N [Compound 38, 6-(4-Amino-3-methoxyphenyl)-1H-pyrazolo[3,4-b]pyridine-4-carboxylic acid]
minimal effective concentration [1]: 0.003 µM

Cn1nc(-c2cccnc2)c2c(C(F)(F)F)cc(-c3cccc(CN4CCOCC4)c3)nc21 [Compound 93]
Activity [1]: F (F=active at a concentration of 300 nM)

Cn1nc(-c2ccccc2)c2c(C(F)(F)F)cc(-c3ccc(N)c(C#N)c3)nc21 [Compound 57, 2-Amino-5-[1-methyl-3-phenyl-4-(trifluoromethyl)-1H-pyrazolo[3,4-b]pyridin-6-yl]benzonitrile]
minimal effective concentration [1]: 0.003 µM | melting point: 269 °C

Cn1ncc2c(C(F)(F)F)cc(-c3ccc(N)c(C#N)c3)nc21 [Compound 88, 2-Amino-5-[1-methyl-4-(trifluoromethyl)-1H-pyrazolo[3,4-b]pyridin-6-yl]benzonitrile]
minimal effective concentration [1]: 0.003 µM | melting point: 276 °C

Cn1cc2c(C(F)(F)F)cc(-c3ccc(N)c(C#N)c3)nc2n1 [Compound 114, 2-Amino-5-[2-methyl-4-(trifluoromethyl)-2H-pyrazolo[3,4-b]pyridin-6-yl]benzonitrile]
minimal effective concentration [1]: 0.003 µM | melting point: 249 °C

NC(=O)c1cc(-c2ccc(F)c(C(=O)O)c2)nc2[nH]nc(-c3ccccc3)c12 [Compound 46, 5-(4-Carbamoyl-3-phenyl-1H-pyrazolo[3,4-b]pyridin-6-yl)-2-fluorobenzoic acid]
weight of granuloma (dry weight of the skin) [2]: significantly reduces | minimal effective concentration [1]: < 0.001 µM

CN(C)CCn1ncc2c(C(F)F)cc(-c3ccc(N)c(C#N)c3)nc21 [Compound 83]
Activity [1]: D (D=active at a concentration of 10 nM)

CN(C)c1ccc(-c2cc(C(F)(F)F)c3c(-c4ccccc4)n[nH]c3n2)cc1 [Compound 61, N,N-Dimethyl-4-[3-phenyl-4-(trifluoromethyl)-1H-pyrazolo[3,4-b]pyridin-6-yl]aniline]
minimal effective concentration [1]: 0.001 µM | melting point: 227 °C

Cn1ncc2c(C(F)F)cc(-c3ccc(N)c(C#N)c3)nc21 [Compound 72, 2-Amino-5-[4-(difluoromethyl)-1-methyl-1H-pyrazolo[3,4-b]pyridin-6-yl]benzonitrile]
minimal effective concentration [1]: 0.01 µM | melting point: 251 °C

N#Cc1cc(-c2cc(C(F)F)c3c(-c4cccnc4)n[nH]c3n2)ccc1N [Compound 91, 2-Amino-5-[4-(difluoromethyl)-3-(pyridin-3-yl)-1H-pyrazolo[3,4-b]pyridin-6-yl]benzonitrile]
minimal effective concentration [1]: 0.3 µM | melting point: 296 °C

O=C(O)c1cc(-c2cc(C(F)(F)F)c3c(-c4ccccc4)n[nH]c3n2)ccc1F [Compound 56, 2-Fluoro-5-[3-phenyl-4-(trifluoromethyl)-1H-pyrazolo[3,4-b]pyridin-6-yl]benzoic acid]
minimal effective concentration [1]: < 0.001 µM
